These are literature values, as cited in US7771771B2, “Phytosterol compositions” (Raisio Nutrition Ltd., priority 1998, dated 2010).

The subject of one data set is serum cholesterol. As to conditions: rats; compared with sitosterol.
Data set [1] deals with serum cholesterol; aortic atheroma. As to conditions: compared with sitosterol.
In another data set the test system is LDL cholesterol. As to conditions: children with severe familial hypercholesterolemia; compared with sitosterol.
The conditions of data set [2]: in words.
The test system of data set [3] is cholesterol content of mixed micelles. As to conditions: compared with sitosterol.

Take `CC[C@H](CC[C@@H](C)[C@H]1CC[C@H]2[C@@H]3CC[C@H]4C[C@@H](O)CC[C@]4(C)[C@H]3CC[C@]12C)C(C)C` [sitostanol]: in the data set with serum cholesterol, the hypocholesterolemic activity entry is listed as “higher hypocholes-terolemic activity than sitosterol”. Moreover, the “formation of aortic atheroma due to cholesterol feeding” value in data set [1] is recorded as “depressed the formation of aortic atheroma due to cholesterol feeding more than did sitosterol”. The “reducing elevated levels of LDL cholesterol” value with LDL cholesterol is “significantly more effective than sitosterol”. Moreover, the absorption result in data set [2] is reported as “virtually unabsorbed”. Also, the “lowering of the cholesterol content of mixed micelles” value in data set [3] is “more efficiently than sitosterol”.
